Measured values taken from patent US20250230193A1, “CYCLIC COMPOUND HAVING SELECTIVE KRAS INHIBITORY EFFECT ON HRAS AND NRAS” (CHUGAI SEIYAKU KABUSHIKI KAISHA, priority 2022, published 2025).

Assays:
[1] = biological target: GDP-bound HRAS wild-type protein (Homo sapiens, UniProt P01112); test: Binding to HRAS by surface plasmon resonance (SPR), Single Cycle Kinetics; details: SPR; KD ratio class
[2] = biological target: GDP-bound NRAS wild-type protein (Homo sapiens, UniProt P01111); test: Binding to NRAS by surface plasmon resonance (SPR), Single Cycle Kinetics; details: SPR; KD ratio class
GDP-bound NRAS wild-type protein, sequence (P01111 whole entry): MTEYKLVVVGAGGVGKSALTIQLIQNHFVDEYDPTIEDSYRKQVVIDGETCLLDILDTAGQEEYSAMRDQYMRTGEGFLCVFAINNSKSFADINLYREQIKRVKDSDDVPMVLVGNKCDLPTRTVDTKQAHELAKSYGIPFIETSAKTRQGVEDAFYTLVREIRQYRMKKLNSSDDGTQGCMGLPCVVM

[3] = test system: human lung cancer strain NCI-H441; test: cells; details: NCI-H441, 96 h, read-out: NCI-H441 IC50 (nM)

GDP-bound HRAS wild-type protein, sequence (P01112 whole entry): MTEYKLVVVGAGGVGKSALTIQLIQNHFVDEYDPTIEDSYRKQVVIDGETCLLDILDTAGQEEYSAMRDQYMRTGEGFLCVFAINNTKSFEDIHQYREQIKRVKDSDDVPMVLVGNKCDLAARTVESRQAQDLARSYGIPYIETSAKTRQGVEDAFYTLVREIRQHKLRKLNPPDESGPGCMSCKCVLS

CCO[C@@H]1C[C@H]2C(=O)NC3(CCC3)C(=O)N(C)[C@@H](C3CCCC3)C(=O)N(C)[C@H](C(=O)N(C)C)CC(=O)N(C)[C@@H](CC(C)C)C(=O)N[C@@H]([C@@H](C)CC)C(=O)N(C)CC(=O)N(C)[C@H]3C/C=C\CCN(C3=O)[C@@H](Cc3ccc(F)cc3)C(=O)N(C)CC(=O)N[C@@H](CCc3cc(F)c(Cl)c(F)c3)C(=O)N2C1 [PP1483]
HRAS/KRAS (ratio of KD value for GDP-bound HRAS wild-type protein to KD value for KRAS) [1]: B (a compound having 3 or more and less than 10 is denoted as B)
NRAS/KRAS (ratio of KD value for GDP-bound NRAS wild-type protein to KD value for KRAS) [2]: A (a compound having 10 or more and less than 20 is denoted as A)
IC50 [3]: 90.3 nM

CC[C@H](C)[C@@H]1NC(=O)[C@H](CC2CC2)N(C)C(=O)C[C@@H](C(=O)N(C)C)N(C)C(=O)[C@H](C2CCCC2)N(C)C(=O)C2(CC(C)(C)C2)NC(=O)[C@@H]2C[C@@H](C(F)(F)F)CN2C(=O)[C@H](CCc2cc(F)c(C(F)(F)F)c(F)c2)NC(=O)CN(C)C(=O)[C@H](Cc2ccc(C(F)(F)F)cc2)N2CC/C=C\C[C@@H](C2=O)N(C)C(=O)CN(C)C1=O [PP1504]
HRAS/KRAS (ratio of KD value for GDP-bound HRAS wild-type protein to KD value for KRAS) [1]: A (a compound having 10 or more and less than 20 is denoted as A)
NRAS/KRAS (ratio of KD value for GDP-bound NRAS wild-type protein to KD value for KRAS) [2]: A (a compound having 10 or more and less than 20 is denoted as A)
IC50 [3]: 38 nM

CCCOC[C@H]1C(=O)N[C@@H]([C@@H](C)CC)C(=O)N(C)CC(=O)N(C)[C@H]2C/C=C\CCN(C2=O)[C@@H](Cc2ccc(C)cc2)C(=O)N(C)CC(=O)N[C@@H](CCc2cc(F)c(C(F)(F)F)c(F)c2)C(=O)N2C[C@H](OCC)C[C@H]2C(=O)NC2(CC(C)(C)C2)C(=O)N(C)[C@@H](C2CCCC2)C(=O)N(C)[C@H](C(=O)N(CC)CC)CC(=O)N1C [PP1578]
HRAS/KRAS (ratio of KD value for GDP-bound HRAS wild-type protein to KD value for KRAS) [1]: A (a compound having 10 or more and less than 20 is denoted as A)
NRAS/KRAS (ratio of KD value for GDP-bound NRAS wild-type protein to KD value for KRAS) [2]: A (a compound having 10 or more and less than 20 is denoted as A)
IC50 [3]: 12.6 nM

CCO[C@@H]1C[C@H]2C(=O)NC3(CCC3)C(=O)N(C)[C@@H](C3CCCC3)C(=O)N(C)[C@H](C(=O)N3CCOCC3)CC(=O)N(C)[C@@H](CC3CC3)C(=O)N[C@@H]([C@@H](C)CC)C(=O)N(C)CC(=O)N(C)[C@H]3C/C=C\CCN(C3=O)[C@@H](Cc3ccc(F)cc3)C(=O)N(C)CC(=O)N[C@@H](CCc3cc(F)c(C(F)(F)F)c(F)c3)C(=O)N2C1 [PP1496]
HRAS/KRAS (ratio of KD value for GDP-bound HRAS wild-type protein to KD value for KRAS) [1]: B (a compound having 3 or more and less than 10 is denoted as B)
NRAS/KRAS (ratio of KD value for GDP-bound NRAS wild-type protein to KD value for KRAS) [2]: A (a compound having 10 or more and less than 20 is denoted as A)
IC50 [3]: 36.7 nM

CCO[C@@H]1C[C@H]2C(=O)NC3(CCCC3)C(=O)N(C)[C@@H](C(CC)CC)C(=O)N(C)[C@H](C(=O)N3CCCC3)CC(=O)N(C)[C@@H](C)C(=O)N[C@@H]([C@@H](C)CC)C(=O)N(C)CC(=O)N(C)[C@H]3C/C=C\CCN(C3=O)[C@@H](CC3CCCCC3)C(=O)N(C)CC(=O)N[C@@H](CCc3cc(F)c(C(F)(F)F)c(F)c3)C(=O)N2C1 [PP1435]
HRAS/KRAS (ratio of KD value for GDP-bound HRAS wild-type protein to KD value for KRAS) [1]: A (a compound having 10 or more and less than 20 is denoted as A)
NRAS/KRAS (ratio of KD value for GDP-bound NRAS wild-type protein to KD value for KRAS) [2]: A (a compound having 10 or more and less than 20 is denoted as A)
IC50 [3]: 178 nM

CC[C@H](C)[C@@H]1NC(=O)[C@H](CC(C)C)N(C)C(=O)C[C@@H](C(=O)N2CCOCC2)N(C)C(=O)[C@H](C2CCCC2)N(C)C(=O)C2(CCC2)NC(=O)[C@@H]2CCCN2C(=O)[C@H](CCc2cc(F)c(C(F)(F)F)c(F)c2)NC(=O)CN(C)C(=O)[C@H](Cc2ccc(C(F)(F)F)cc2)N2C[C@H](C)[C@H](C)C[C@@H](C2=O)N(C)C(=O)[C@@H]2CCN2C1=O [PP1367]
HRAS/KRAS (ratio of KD value for GDP-bound HRAS wild-type protein to KD value for KRAS) [1]: B (a compound having 3 or more and less than 10 is denoted as B)
NRAS/KRAS (ratio of KD value for GDP-bound NRAS wild-type protein to KD value for KRAS) [2]: A (a compound having 10 or more and less than 20 is denoted as A)
IC50 [3]: 29.3 nM

CCO[C@@H]1C[C@H]2C(=O)NC3(CC(C)(C)C3)C(=O)N(C)[C@@H](C3CCCC3)C(=O)N(C)[C@H](C(=O)N(C)C)CC(=O)N(C)[C@@H](CC3CC3)C(=O)N[C@@H]([C@@H](C)CC)C(=O)N(C)CC(=O)N(C)[C@H]3C/C=C\CCN(C3=O)[C@@H](Cc3ccc(C(F)(F)F)cc3)C(=O)N(C)CC(=O)N[C@@H](CCc3ccc(C(F)(F)F)c(OC)c3)C(=O)N2C1 [PP1563]
HRAS/KRAS (ratio of KD value for GDP-bound HRAS wild-type protein to KD value for KRAS) [1]: A (a compound having 10 or more and less than 20 is denoted as A)
NRAS/KRAS (ratio of KD value for GDP-bound NRAS wild-type protein to KD value for KRAS) [2]: A (a compound having 10 or more and less than 20 is denoted as A)
IC50 [3]: 2.6 nM

CC[C@H](C)[C@@H]1NC(=O)[C@H](CC(C)C)N(C)C(=O)C[C@@H](C(=O)N(C)C)N(C)C(=O)[C@H](C2CCCC2)N(C)C(=O)C2(CC(C)(C)C2)NC(=O)[C@@H]2C[C@@H](F)CN2C(=O)[C@H](CCc2cc(F)c(C(F)(F)F)c(F)c2)NC(=O)CN(C)C(=O)[C@H](Cc2ccc(C(F)(F)F)cc2)N2CC/C=C\C[C@@H](C2=O)N(C)C(=O)CN(C)C1=O [PP1566]
HRAS/KRAS (ratio of KD value for GDP-bound HRAS wild-type protein to KD value for KRAS) [1]: A (a compound having 10 or more and less than 20 is denoted as A)
NRAS/KRAS (ratio of KD value for GDP-bound NRAS wild-type protein to KD value for KRAS) [2]: A (a compound having 10 or more and less than 20 is denoted as A)
IC50 [3]: 2.3 nM

CCO[C@@H]1C[C@H]2C(=O)NC3(CCC3)C(=O)N(C)[C@@H](C3CCCC3)C(=O)N(C)[C@H](C(=O)N3CCOCC3)CC(=O)N(C)[C@@H](CC(C)C)C(=O)N[C@@H]([C@@H](C)CC)C(=O)N(C)CC(=O)N(C)[C@H]3C/C=C\CCN(C3=O)[C@@H](Cc3ccc(C(F)(F)F)cc3)C(=O)N(C)CC(=O)N[C@@H](CCc3cc(F)c(C(F)(F)F)c(F)c3)C(=O)N2C1 [PP1282]
HRAS/KRAS (ratio of KD value for GDP-bound HRAS wild-type protein to KD value for KRAS) [1]: A (a compound having 10 or more and less than 20 is denoted as A)
NRAS/KRAS (ratio of KD value for GDP-bound NRAS wild-type protein to KD value for KRAS) [2]: A (a compound having 10 or more and less than 20 is denoted as A)
IC50 [3]: 12.3 nM

CCO[C@@H]1C[C@H]2C(=O)NC3(CCC3)C(=O)N(C)[C@@H](C3CCCC3)C(=O)N(C)[C@H](C)CC(=O)N(C)[C@@H](CC3CCCC3)C(=O)N[C@@H]([C@@H](C)CC)C(=O)N(C)CC(=O)N(C)[C@H]3C/C=C\CCN(C3=O)[C@@H](Cc3ccc(C)cc3)C(=O)N(C)CC(=O)N[C@@H](CCc3cc(F)c(C(F)(F)F)c(F)c3)C(=O)N2C1 [PP1413]
HRAS/KRAS (ratio of KD value for GDP-bound HRAS wild-type protein to KD value for KRAS) [1]: B (a compound having 3 or more and less than 10 is denoted as B)
NRAS/KRAS (ratio of KD value for GDP-bound NRAS wild-type protein to KD value for KRAS) [2]: B (a compound having 3 or more and less than 10 is denoted as B)
IC50 [3]: 62.5 nM

CCCOC[C@H]1C(=O)N[C@@H]([C@@H](C)CC)C(=O)N(C)CC(=O)N(C)[C@H]2C/C=C\CCN(C2=O)[C@@H](Cc2ccc(C(F)(F)F)cc2)C(=O)N(C)CC(=O)N[C@@H](CCc2cc(F)c(C(F)(F)F)c(F)c2)C(=O)N2C[C@H](OCC)C[C@H]2C(=O)NC2(CC(C)(C)C2)C(=O)N(C)[C@@H](C2CCCC2)C(=O)N(C)[C@H](C(=O)N(CC)CC)CC(=O)N1C [PP1575]
HRAS/KRAS (ratio of KD value for GDP-bound HRAS wild-type protein to KD value for KRAS) [1]: B (a compound having 3 or more and less than 10 is denoted as B)
NRAS/KRAS (ratio of KD value for GDP-bound NRAS wild-type protein to KD value for KRAS) [2]: B (a compound having 3 or more and less than 10 is denoted as B)
IC50 [3]: 11.1 nM
